Consider five molecules from patent US20250177384A1, “CHROMANOL COMPOUNDS FOR TREATMENT OR PROPHYLAXIS OF AGEING-ASSOCIATED DISORDERS” (Sulfateq B.V., priority 2022, published 2025).

Experiment [1] deals with accelerated aging animal models. The note with it: chronic treatment; cited from earlier work.
In experiment [2] the test system is W1118 flies. As to the kind of experiment: Drosophila lifespan with compound added to the food. Format: in vivo. The note with it: for survival of flies versus controls: higher doses of 10, 100, 1000 μM in food, from larvae state until death, FIG. 1, FIG. 2; for lifespan of Drosophila: treatment via food. The protocol: […] flies were bred and housed at 25° C. with a 12 h:12 h light/dark-cycle. Flies were kept in vials containing approximately 5 mL of Bloomington food consisting of sucrose, yeast suspension, agar, […] and fresh yeast. Flies kept as a stock were flipped to fresh vials weekly. Food was stored at 18° C. and warmed at room temperature before use. SUL109 and SUL121 were used to assess the effect of chromanol compounds on the lifespan of the fly stocks. The compounds were independently tested. Either SUL109 or SUL121 were added to the food to a final concentration of 10 μM, 100 μM and 1000 μM. […] flies were anesthetized in small groups using CO2. Subsequently, flies were collected at a density of […] per tube. At day 10 and 11 eclosing adults were anesthetized and housed at a density of 20 males and females per tube. Ten vials were used per study condition (total of 100 males and 100 females). During the lifespan, flies were transferred onto new vials containing fresh food 3 times a week, and the number and sex of dead flies was recorded.

Experiment [3] relates to Ercc1−/− (EC-KO) mice. Briefly: Renal function: urine creatinine, urine albumin, plasma creatinine after chronic treatment. The experiment is classed as in vivo. The protocol:
(§1) EC-KO mice and corresponding littermates (LM) received either SUL138 treated (30 mg SUL138/kg BW/day) or vehicle treated (0.015% [v/v] ethanol) chow for 8 weeks (14-22 weeks of age).
At the age of 21 weeks, animals were put in metabolic cages. After 10 h of acclimatization, 24 h urine was collected. At the age of 22 weeks, mice were euthanized, urine, blood plasma and tissue were collected.
[…] levels in urine were measured in the samples collected at the age of 21 weeks and at the time euthanasia (22 weeks). QuantiChrom Creatinine Assay Kit (1:2 sample dilution) was used according to manufacturer's instructions.
Albumin levels in urine were measured in the samples collected at the time euthanasia (22 weeks). Mouse albumin ELISA kit ab108792 (1:400 sample dilution) was used according to manufacturer's instructions.
Blood plasma creatinine was measured in the samples collected at the time euthanasia (22 weeks). […]. QuantiChrom Creatinine Assay Kit […] was used according to manufacturer's instructions.

In experiment [4] the test system is Ercc1-deficient mouse models. As to the kind of experiment: Persistent DNA damage in Ercc1-deficient mouse models. The experiment is classed as in vivo. To be noted: no method or data given.
Experiment [5] concerns thoracic aorta segments of EC-KO mice. Briefly: Acute effect on endothelium-dependent relaxation (pre-incubation of aorta segments). The note with it: pre-incubation 100 μM for 30 minutes. Here is the method: (§2) Segments of thoracic aorta were isolated and mounted in wire-myograph containing Krebs Henseleit buffer (at 37° C., oxygenated with 95% O2 and 5% CO2) to assess endothelium-dependent (ED) relaxation.
(§3) A stable synthetic analog of the endoperoxide prostaglandin PGH2, namely U46619, was used for pre-constriction. Thoracic aorta segments were washed and subsequently pre-constricted with U46619 (30-60 nM final concentration; 75-100% of the response to 100 mM KCl), followed by a dose response curve with ED vasodilator acetylcholine (ACh) (10^−9-10^−5 M final concentration).
The acute effect of SUL138 was evaluated by pre-incubating with 100 μM for 30 minutes.

The test system of experiment [6] is Ercc1−/− (EC-KO) mice. Briefly: Endothelium-dependent relaxation of thoracic aorta segments (wire-myograph) after chronic treatment. The experiment is classed as in vivo. Here is the method: as §1, §2
Contraction of the thoracic aorta isolates was induced with 100 mM KCl (final concentration) to evaluate vessel viability.
as §3
To evaluate the contribution of different pathways to vasodilator response, segments were incubated with inhibitors for 15 minutes prior to pre-constriction with U46619. L-NAME (10^−4 M) was added to assess nitric oxide (NO) contribution to vasodilator response. L-NAME, apamin (100 nM) and TRAM-34 (10 μM) were added to assess ED hyperpolarization factor (EDHF) contribution to vasodilator response.

For `CCCCc1nc(Cl)c(CO)n1Cc1ccc(-c2ccccc2-c2nn[nH]n2)cc1` [losartan], the “endothelial dependent relaxation / vasomotor (vasodilator) function” value in experiment [1] is listed as “did not have a beneficial effect”.
Consider `Cc1c(C)c2c(c(C)c1O)CCC(C)(C(=O)N1CCNCC1)O2` (stereo not drawn) [SUL121, (6-hydroxy-2,5,7,8-tetramethylchroman-2yl)(piperazin-1-yl)methanone], for which, in experiment [2], the “survival of flies versus controls” value is given as “better survival than the controls” and the “lifespan of Drosophila” value is listed as “increased lifespan”.
For `Cc1c(C)c2c(c(C)c1O)CCC(C)(C(=O)N1CCN(CCO)CC1)O2` (stereo not drawn) [SUL109, (6-hydroxy-2,5,7,8-tetramethylchroman-2-yl)(4-(2-hydroxyethyl)piperazin-1-yl)methanone] the same measures were “better survival than the controls” and “increased lifespan”.
Take `CCCc1nn(C)c2c(=O)[nH]c(-c3cc(S(=O)(=O)N4CCN(C)CC4)ccc3OCC)nc12` [sildenafil]: the “endothelial dependent relaxation / vasomotor (vasodilator) function” value in experiment [1] was “not able to improve endothelial dependent relaxation”.
Consider `Cc1c(C)c2c(c(C)c1O)CC[C@@](C)(C(=O)N1CCN(CCO)CC1)O2` [SUL138, S-(6-hydroxy-2,5,7,8-tetramethylchroman-2-yl)(4-(2-hydroxyethyl)piperazin-1-yl)methanone], for which the “albumin/creatinine ratio in urine” value in experiment [3] (EC-KO mice, 22 weeks, FIG. 8) is listed as “significant improvement of albumin/creatinine ratios”. The “creatinine filtration (creatinine in 24 h urine)” value in experiment [3] (EC-KO mice, 24 h urine at 21 weeks, FIG. 10) is “significantly improved”. In experiment [3] (EC-KO mice, urine at 22 weeks, FIG. 7), the “creatinine filtration (urine creatinine)” value is listed as “significantly improved creatinine filtration”. Besides, the “renal function (summary)” value in experiment [3] (Ercc1-deficient mouse models) is given as “protection of renal function”. Further, in experiment [4], the “accumulation of persistent DNA damage” value is listed as “attenuation of the accumulation of persistent DNA damage”. The “ED relaxation after acute treatment” value in experiment [5] is “no effect on ED relaxation”. In addition, the “ED relaxation (acetylcholine response after U46619 pre-constriction)” value in experiment [6] (chronic treatment 30 mg/kg BW/day in chow for 8 weeks, EC-KO mice, compared to LM control levels, FIG. 3) is on record as “restored ED relaxation”. Further, the “pathway contribution to ACh response (EDHF-driven ED relaxation)” value in experiment [6] (chronic treatment, EC-KO mice, L-NAME curve, FIG. 6) was “increased EDHF-driven ED relaxation”. In addition, the “vascular function (summary)” value in experiment [6] (chronic treatment, isolated tissue from Ercc1-deficient mouse models) is “full preservation of vascular function through EDHF rescue”.
